Test results published in article PMC4144829 (Nature chemical biology, 2014).
pEC50: −log10 of the molar value. Like-named read-outs stand apart in the source and are kept apart here.

Legend:
U2OS cells [1] = test: FANCD2 subnuclear foci formation; assay type: cell-based, human; conditions: ML323 30 μM, cisplatin 5 μM, vehicle 13.1%
451 kinases = test: in vitro kinase profiling; assay type: biochemical
DR-U2OS cells = test: HR assay; assay type: cell-based, human; conditions: 30 μM ML323, 2.56% in the absence of ML323
USP11 = USP11 (Homo sapiens, UniProt P51784); test: in vitro DUB selectivity; assay type: biochemical
[2] = tested on: DUBs in the UCH, OTU and MJD families; test: in vitro DUB profiling
NEDP1 = NEDP1 (Homo sapiens, UniProt Q96LD8); test: in vitro deneddylase selectivity; assay type: biochemical
NEDP1, sequence (Q96LD8 whole entry): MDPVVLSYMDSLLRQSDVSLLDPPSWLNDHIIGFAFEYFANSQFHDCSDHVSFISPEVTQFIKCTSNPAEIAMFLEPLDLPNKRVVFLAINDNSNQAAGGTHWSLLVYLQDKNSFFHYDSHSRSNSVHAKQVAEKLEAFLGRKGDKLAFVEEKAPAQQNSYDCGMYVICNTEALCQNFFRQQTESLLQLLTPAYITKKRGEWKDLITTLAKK

[3] = tested on: USP8, USP7, CYLD, USP5, USP14, UCH-L3 and UCH-L1 in HEK293T cells; test: cellular activity-based DUB profiling with HA-Ub-VME; assay type: cell-based, human; conditions: 100 μM cisplatin, ML323 0.5 to 50 μM
SENP1 = SENP1 (Homo sapiens, UniProt Q9P0U3); test: in vitro deSUMOylase selectivity; assay type: biochemical
USP1 in HEK293T cells = USP1 in HEK293T cells (Homo sapiens, UniProt O94782); test: cellular activity-based DUB profiling with HA-Ub-VME; assay type: cell-based; conditions: 100 μM cisplatin, ML323 0.5 to 50 μM
USP1 in HEK293T cells, sequence (O94782 whole entry): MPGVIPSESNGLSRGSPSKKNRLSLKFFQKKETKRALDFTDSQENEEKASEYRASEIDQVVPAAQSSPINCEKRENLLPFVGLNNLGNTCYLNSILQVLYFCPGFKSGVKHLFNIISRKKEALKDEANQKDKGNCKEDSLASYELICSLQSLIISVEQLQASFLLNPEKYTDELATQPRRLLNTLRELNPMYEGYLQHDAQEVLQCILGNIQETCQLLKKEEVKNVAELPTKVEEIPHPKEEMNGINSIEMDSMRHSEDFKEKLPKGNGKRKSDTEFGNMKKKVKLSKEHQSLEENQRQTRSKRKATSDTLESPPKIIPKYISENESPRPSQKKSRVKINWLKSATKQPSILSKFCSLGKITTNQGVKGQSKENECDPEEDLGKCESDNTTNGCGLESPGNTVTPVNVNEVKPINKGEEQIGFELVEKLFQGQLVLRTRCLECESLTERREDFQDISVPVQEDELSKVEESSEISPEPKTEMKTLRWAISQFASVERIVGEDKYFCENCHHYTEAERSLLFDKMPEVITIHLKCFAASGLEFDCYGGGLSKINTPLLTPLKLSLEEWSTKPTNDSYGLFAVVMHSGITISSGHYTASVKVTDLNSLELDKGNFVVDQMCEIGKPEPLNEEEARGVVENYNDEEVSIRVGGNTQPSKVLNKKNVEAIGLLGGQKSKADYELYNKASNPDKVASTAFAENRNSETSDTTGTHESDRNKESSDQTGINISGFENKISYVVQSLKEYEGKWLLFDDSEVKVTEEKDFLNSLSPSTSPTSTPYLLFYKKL
USP1 in HEK293T cells, sequence (Q8TAF3 whole entry partner): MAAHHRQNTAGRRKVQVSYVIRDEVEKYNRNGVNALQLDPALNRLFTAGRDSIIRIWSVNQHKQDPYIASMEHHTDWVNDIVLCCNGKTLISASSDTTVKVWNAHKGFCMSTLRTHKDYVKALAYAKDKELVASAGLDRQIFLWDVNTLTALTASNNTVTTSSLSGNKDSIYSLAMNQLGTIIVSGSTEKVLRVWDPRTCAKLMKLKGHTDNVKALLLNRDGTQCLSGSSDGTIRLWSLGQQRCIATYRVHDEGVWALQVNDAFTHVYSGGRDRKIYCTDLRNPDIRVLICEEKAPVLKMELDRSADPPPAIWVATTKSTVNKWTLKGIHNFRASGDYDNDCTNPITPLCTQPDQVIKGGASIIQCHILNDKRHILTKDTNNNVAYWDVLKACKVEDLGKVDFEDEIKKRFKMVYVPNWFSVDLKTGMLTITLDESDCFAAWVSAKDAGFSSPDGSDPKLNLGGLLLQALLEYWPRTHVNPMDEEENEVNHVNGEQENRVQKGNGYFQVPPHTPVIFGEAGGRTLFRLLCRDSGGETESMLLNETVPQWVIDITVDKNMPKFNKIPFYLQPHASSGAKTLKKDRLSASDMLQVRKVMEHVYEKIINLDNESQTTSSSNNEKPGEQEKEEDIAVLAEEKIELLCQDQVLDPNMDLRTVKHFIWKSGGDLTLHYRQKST

[4] = tested on: USP1 shRNA knockout H596 cell strain; test: colony-forming assay in USP1 shRNA cells; assay type: cell-based, human
PD20 + D2 cells [5] = test: UV sensitivity colony-forming assay; assay type: cell-based, human; conditions: with ML323
USP10 = USP10 (Homo sapiens, UniProt Q14694); test: in vitro DUB selectivity
USP10, sequence (Q14694 whole entry): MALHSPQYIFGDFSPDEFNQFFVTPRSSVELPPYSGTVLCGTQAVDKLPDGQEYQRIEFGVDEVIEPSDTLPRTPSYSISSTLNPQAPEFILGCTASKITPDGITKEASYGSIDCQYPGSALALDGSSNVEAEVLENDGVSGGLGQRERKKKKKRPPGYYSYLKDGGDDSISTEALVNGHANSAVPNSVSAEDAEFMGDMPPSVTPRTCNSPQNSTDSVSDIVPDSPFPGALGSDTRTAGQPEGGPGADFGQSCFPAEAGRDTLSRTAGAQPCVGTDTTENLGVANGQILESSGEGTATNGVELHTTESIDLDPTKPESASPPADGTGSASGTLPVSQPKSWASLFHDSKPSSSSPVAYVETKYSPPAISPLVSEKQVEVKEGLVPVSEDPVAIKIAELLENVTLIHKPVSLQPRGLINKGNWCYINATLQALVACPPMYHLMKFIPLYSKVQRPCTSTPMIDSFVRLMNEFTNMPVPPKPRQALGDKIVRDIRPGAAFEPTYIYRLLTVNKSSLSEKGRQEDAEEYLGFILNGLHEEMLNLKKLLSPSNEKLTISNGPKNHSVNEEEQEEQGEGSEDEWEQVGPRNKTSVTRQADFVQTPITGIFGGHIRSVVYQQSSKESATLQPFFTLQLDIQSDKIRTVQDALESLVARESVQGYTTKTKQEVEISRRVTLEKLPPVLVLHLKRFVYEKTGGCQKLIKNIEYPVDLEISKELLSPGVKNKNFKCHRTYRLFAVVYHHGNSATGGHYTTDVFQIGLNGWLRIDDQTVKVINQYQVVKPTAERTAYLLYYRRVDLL

USP5 = USP5 (Homo sapiens, UniProt P45974); test: in vitro DUB selectivity; assay type: biochemical
USP5, sequence (P45974 whole entry): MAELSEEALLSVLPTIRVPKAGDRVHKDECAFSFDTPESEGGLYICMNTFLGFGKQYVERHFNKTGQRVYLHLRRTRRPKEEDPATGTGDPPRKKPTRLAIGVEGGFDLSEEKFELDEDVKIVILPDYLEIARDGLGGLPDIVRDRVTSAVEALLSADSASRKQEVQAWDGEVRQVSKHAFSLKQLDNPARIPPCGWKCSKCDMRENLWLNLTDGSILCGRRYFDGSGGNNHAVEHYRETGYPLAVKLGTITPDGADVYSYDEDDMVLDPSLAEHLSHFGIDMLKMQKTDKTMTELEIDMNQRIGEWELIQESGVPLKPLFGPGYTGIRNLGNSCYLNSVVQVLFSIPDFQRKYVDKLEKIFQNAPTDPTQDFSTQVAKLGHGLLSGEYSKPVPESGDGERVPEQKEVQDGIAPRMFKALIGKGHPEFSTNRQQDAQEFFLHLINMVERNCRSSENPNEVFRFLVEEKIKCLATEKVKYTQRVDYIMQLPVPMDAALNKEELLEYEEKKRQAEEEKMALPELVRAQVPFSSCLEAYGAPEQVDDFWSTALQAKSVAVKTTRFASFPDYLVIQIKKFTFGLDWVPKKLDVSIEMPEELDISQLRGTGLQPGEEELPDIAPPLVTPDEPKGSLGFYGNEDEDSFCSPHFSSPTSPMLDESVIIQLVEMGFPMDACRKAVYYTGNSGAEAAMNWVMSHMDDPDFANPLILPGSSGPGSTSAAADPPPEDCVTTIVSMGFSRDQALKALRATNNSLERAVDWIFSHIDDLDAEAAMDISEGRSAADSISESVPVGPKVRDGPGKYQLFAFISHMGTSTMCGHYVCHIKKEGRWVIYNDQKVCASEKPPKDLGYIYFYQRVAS

USP2 = USP2 (Homo sapiens, UniProt O75604); test: in vitro DUB selectivity; assay type: biochemical
USP2, sequence (O75604 259-605): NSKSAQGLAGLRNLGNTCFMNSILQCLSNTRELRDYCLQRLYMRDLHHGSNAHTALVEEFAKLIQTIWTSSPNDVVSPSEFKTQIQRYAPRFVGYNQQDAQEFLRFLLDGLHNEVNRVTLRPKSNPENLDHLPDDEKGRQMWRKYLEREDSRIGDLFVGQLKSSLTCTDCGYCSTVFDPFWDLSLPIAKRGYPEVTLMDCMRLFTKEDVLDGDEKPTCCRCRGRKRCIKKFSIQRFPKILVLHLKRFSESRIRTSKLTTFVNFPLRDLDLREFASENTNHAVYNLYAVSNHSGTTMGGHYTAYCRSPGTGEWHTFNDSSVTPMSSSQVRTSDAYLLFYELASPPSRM

USP8 = USP8 (Homo sapiens, UniProt P40818); test: in vitro DUB selectivity; assay type: biochemical
USP46-UAF1 = USP46-UAF1 (Homo sapiens, UniProt P62068); test: in vitro DUB selectivity; assay type: biochemical
[6] = tested on: USP1 shRNA knockdown H596 cells; test: cellular Ub-PCNA level in USP1 shRNA knockdown cells; assay type: cell-based, human
USP1-UAF1 [7] = target: T1, USP1-UAF1 (Homo sapiens, UniProt O94782); test: inhibition mechanism determination; assay type: biochemical
T1 sequence (O94782 whole entry): as the sequence (O94782 whole entry) above
T1 sequence (Q8TAF3 whole entry partner): as the sequence (Q8TAF3 whole entry partner) above

USP1-UAF1 [8] = target: T1, USP1-UAF1; test: reversibility; assay type: biochemical; conditions: 100-fold dilution after treatment at ten times the IC50 for 15, 30 and 60 min
USP1-UAF1 [9] = target: T1, USP1-UAF1; test: native gel electrophoresis of USP1-UAF1 complex; conditions: up to 100 times its IC50
U2OS cells [10] = test: SCE assay; assay type: cell-based, human; conditions: ML323 30 μM, cisplatin 15 μM, control 0.12
XPV cells = test: UV sensitivity colony-forming assay; assay type: cell-based, human; conditions: 20 μM ML323
USP14 = USP14 (Homo sapiens, UniProt P54578); test: in vitro DUB selectivity
USP14, sequence (P54578 whole entry): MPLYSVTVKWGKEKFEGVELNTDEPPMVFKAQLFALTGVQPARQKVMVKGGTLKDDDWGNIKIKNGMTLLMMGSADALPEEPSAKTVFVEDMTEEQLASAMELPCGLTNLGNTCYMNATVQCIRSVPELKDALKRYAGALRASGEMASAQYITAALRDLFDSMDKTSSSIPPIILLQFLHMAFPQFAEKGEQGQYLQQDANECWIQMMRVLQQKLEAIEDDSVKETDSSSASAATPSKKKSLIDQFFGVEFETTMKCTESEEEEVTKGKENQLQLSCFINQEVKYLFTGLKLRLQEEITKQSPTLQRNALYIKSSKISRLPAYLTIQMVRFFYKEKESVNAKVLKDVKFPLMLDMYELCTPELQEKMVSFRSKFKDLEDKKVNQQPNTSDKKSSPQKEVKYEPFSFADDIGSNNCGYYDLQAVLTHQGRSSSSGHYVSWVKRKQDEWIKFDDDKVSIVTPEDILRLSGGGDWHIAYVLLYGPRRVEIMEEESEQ

70 unrelated proteases = test: in vitro protease profiling
H596 cells [11] = test: colony-forming assay; assay type: cell-based, human
USP1-UAF1 [12] = target: T1, USP1-UAF1; test: HA-Ub-VME labeling of purified USP1-UAF1; conditions: biochemical assay
XPV + Polη cells = test: UV sensitivity colony-forming assay; conditions: 20 μM ML323
PD20 cells = test: UV sensitivity colony-forming assay; assay type: cell-based, human; conditions: 20 μM ML323
H596 cells [13] = test: cell cycle analysis; assay type: cell-based, human
USP21 = USP21 (Homo sapiens, UniProt Q9UK80); test: in vitro DUB selectivity; assay type: biochemical
USP21, sequence (Q9UK80 209-563): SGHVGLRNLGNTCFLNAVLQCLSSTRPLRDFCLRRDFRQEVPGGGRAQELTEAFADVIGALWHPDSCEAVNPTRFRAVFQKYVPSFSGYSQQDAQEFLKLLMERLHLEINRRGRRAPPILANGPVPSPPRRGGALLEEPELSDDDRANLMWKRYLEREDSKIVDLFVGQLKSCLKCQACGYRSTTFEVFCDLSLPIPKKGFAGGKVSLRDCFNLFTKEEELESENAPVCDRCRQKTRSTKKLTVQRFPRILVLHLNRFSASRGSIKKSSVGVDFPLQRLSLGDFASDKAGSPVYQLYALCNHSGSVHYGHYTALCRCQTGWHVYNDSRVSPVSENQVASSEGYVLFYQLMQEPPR

H596 cells [14] = test: cellular activity assay of USP1-UAF1; assay type: cell-based, human; conditions: for change in levels of Ub-PCNA and Ub-FANCD2: H596, 6 h, cisplatin 100 μM, ML323 30 μM
H460 cell line = test: colony-forming assay; conditions: read-out: EC50 of cell killing; cisplatin-sensitive NSCLC H460
PD20 + D2 cells [15] = test: cytotoxicity assay; conditions: PD20 + D2, cisplatin alone
human USP1-UAF1 = conditions: cited from earlier work

## Cc1cnc(-c2ccccc2C(C)C)nc1NCc1ccc(-n2ccnn2)cc1 [ML323]
U2OS cells [1]
  FANCD2 subnuclear foci formation: no substantial change
451 kinases
  inhibition of kinases: no substantial inhibition
DR-U2OS cells
  I-SceI-induced HR frequency: 0.81%
USP11
  inhibition of USP11: little to no inhibition
[2]
  inhibition of DUBs of UCH, OTU and MJD families: little to no inhibition
NEDP1
  inhibition of NEDP1: did not inhibit
[3]
  labeling of other cellular DUBs by HA-Ub-VME: did not inhibit the labeling of the DUBs tested
SENP1
  inhibition of SENP1: did not inhibit
USP1 in HEK293T cells
  labeling of cellular USP1 by HA-Ub-VME: clear decrease in the intensity of the labeled USP1 band
[4]
  sensitization to cisplatin: no further sensitization to cisplatin
PD20 + D2 cells [5]
  LD50 of UV sensitivity: 3.4 J m^−2
USP10
  inhibition of USP10: little to no inhibition
USP5
  inhibition of USP5: little to no inhibition
USP2
  inhibition of USP2: little to no inhibition
USP8
  inhibition of USP8: little to no inhibition
USP46-UAF1
  inhibition of USP46-UAF1: did not inhibit
[6]
  Ub-PCNA level, cisplatin vs combination of ML323 and cisplatin: little difference in Ub-PCNA levels
USP1-UAF1 [7]; Lineweaver-Burk, di-Ub cleavage
  inhibition mechanism: mixed inhibition mechanism
USP1-UAF1 [7]; mixed inhibition
  inhibition constant for the enzyme-substrate complex (K'i): 183 nM
USP1-UAF1 [8]
  reversibility of inhibition: reversible inhibitor
USP1-UAF1 [9]
  disruption of the USP1-UAF1 complex: ruled out the possibility that ML323 acts as a disruptor of the USP1-UAF1 complex
U2OS cells [10]
  SCE events per chromosome: 0.13 SCE events per chromosome
XPV cells
  LD50 of UV sensitivity: 3.2 J m^−2
USP14
  inhibition of USP14: little to no inhibition
70 unrelated proteases
  inhibition of other proteases: no substantial inhibition
H596 cells [11]; Homo sapiens, NCI-H596, read-out: EC50 of cell killing
  pEC50: < 5.00
USP1-UAF1 [12]
  labeling of USP1-UAF1 by HA-Ub-VME: inhibited the labeling of USP1-UAF1 by HA-Ub-VME
XPV + Polη cells
  LD50 of UV sensitivity: 4.7 J m^−2
  decrease of UV LD50 vs UV treatment alone: 42%
PD20 cells
  LD50 of UV sensitivity: 2.8 J m^−2
H596 cells [13]; H596, ML323 alone 20 μM
  cell cycle delay or arrest: did not result in cell cycle delay or arrest
USP21
  inhibition of USP21: little to no inhibition
H596 cells [14]
  change in levels of Ub-PCNA and Ub-FANCD2: increase in the monoubiquitination of PCNA and FANCD2 was also observed
H596 cells [14]; H596, ML323 alone or in combination with cisplatin
  time to effect on PCNA ubiquitination after treatment: 3 to 6 h
H596 cells [14]; H596, ML323 alone or with cisplatin
  level of Ub-H2A: did not affect the level of Ub-H2A
H596 cells [14]; H596, absence or presence of cisplatin, 6 h
  concentration at which increase in Ub-PCNA level is seen: ≥ 5 µM

## N.N.[Cl][Pt][Cl] [cisplatin, reference compound]
U2OS cells [1]
  FANCD2 subnuclear foci formation: 59.4%
H460 cell line
  pEC50: 7.13
PD20 + D2 cells [15]
  pEC50: 4.91
U2OS cells [10]
  SCE events per chromosome: 0.99 SCE events per chromosome
H596 cells [11]; read-out: EC50 of cell killing, H596, single agent
  pEC50: 6.31
H596 cells [13]; H596, cisplatin 5 μM, ML323 20 μM
  population of cells in S phase: 45%
H596 cells [14]
  change in levels of Ub-PCNA and Ub-FANCD2: small increase

## CC(C)(Sc1ccc(CCN(CCCCC2CCCCC2)C(=O)NC2CCCCC2)cc1)C(=O)O [GW7647]
Human USP1-UAF1
  affinity as inhibitor of human USP1-UAF1: low micromolar

## O=c1[nH]c2ccccc2n1C1CCN(CCCC(c2ccc(F)cc2)c2ccc(F)cc2)CC1 [pimozide]
Human USP1-UAF1
  affinity as inhibitor of human USP1-UAF1: low micromolar
